Results as given in patent US20230263803A1, “METHODS OF PREVENTING OR TREATING COVID-19 AND RELATED VIRAL DISEASES OR DISORDERS” (KINARUS AG, priority 2020, published 2023).

Assays:
[1] = system: SARS-CoV-2B.1.1.7 variant; type: cell-based; conditions: at the highest concentrations; Vero B4 cells, 72 hrs, qRT-PCR
[2] = system: SARS-CoV-2 B1.351 variant; type: cell-based; conditions: at the highest concentrations; Vero B4 cells, 72 hrs, qRT-PCR

## Cn1c(=O)c(Oc2ccc(F)cc2F)cc2cnc(NC(CCO)CCO)nc21 [Pamapimod, 6-(2,4-Difluorophenoxy)-2-[3-hydroxy-1-(2-hydroxyethyl)-propylamino]-8-methyl-8H-pyrido[2,3-d]pyrimidin-7-one]
[1]
  inhibition of viral shedding, B.1.1.7 variant: > 90%
[2]
  inhibition of viral shedding, B1.351 variant: > 90%
